According to patent US20120171133A1, “Modulation of Dynein in Skin” (AVON PRODUCTS, INC., priority 2010, published 2012):

Assays:
[1] = system: mRNA for the heavy chain DYNC1H1 of cytoplasmic dynein; experiment: Dynein modulation assay (Panomics Quantigene multiplex, branched DNA) in keratinocytes; format: cell-based, human; conditions: for Effect (up-regulation scale) / Effect (down-regulation scale): keratinocytes (K), 24 hours
Protocol: (§1) Normal human dermal fibroblasts or keratinocytes were cultured in 96-well tissue culture treated plates, containing appropriate culture medium. Stock solution of actives were made in an appropriate vehicle (water/Ethanol/Propylene glycol). Cells were treated with test material or respective vehicle control diluted in growth medium for 24 hours in a humidified 37° C. Incubator with 10% CO2. After incubation, growth medium from each plate was removed and 100 μL of lysis buffer was added to the wells and placed in 37° C. Incubator with 10% CO2 for 30 minutes. At the end of incubation, the cells are collected in freezer plates and placed in −80° C. freezer, until analysis. Changes in mRNA for Dynein after treatment were analyzed using Panomics Quantigene multiplex assay that employs a branched DNA technology, following manufacturer's instructions (Affymetrix, Calif.). Percent increase (up-regulation) or decrease (down-regulation) in mRNA for the heavy chain DYNC1H1 of cytoplasmic dynein was calculated by comparing the test results to the control. The percent up-regulation or down-regulation is converted to a scaled score as shown below in Table 3.

[2] = system: mRNA for the heavy chain DYNC1H1 of cytoplasmic dynein; experiment: Dynein modulation assay (Panomics Quantigene multiplex, branched DNA) in fibroblasts; format: cell-based, human; conditions: fibroblasts (F), 24 hours
Protocol: as §1

For CCCCCCCC(=O)Nc1ccc(N2CCN(C(=O)CC(C)(C)C)CC2)cc1 [Compound 2], the “Effect (up-regulation scale)” value ([1]; Conc. 0.0005%) was “++ (41-60)”.
In the case of CC(C)CN(Cc1ccc(OS(C)(=O)=O)cc1)S(=O)(=O)c1ccccc1 [Compound 1], the “Effect (up-regulation scale)” value ([2]; Conc. 0.00005%) is reported as “++ (41-60)”.
In the case of CCOCCCNC(=O)c1coc(CN(CCCOCC)C(=O)c2cccc(Br)c2)n1 [Compound 6], the “Effect (down-regulation scale)” value ([1]; Conc. 0.0005%) is reported as “− (21-40)”.
CCCCc1ccc(C(=O)Nc2cccc(C3NC(=S)N(C)C(C)=C3C(=O)OCCOC)c2)cc1 (stereo not shown) [Compound 3] was tested, and the “Effect (up-regulation scale)” value ([2]; Conc. 0.00005%) was “++ (41-60)”.
O=C(O)c1cc(Cl)ccc1O [5-Chlorosalicylic acid] was tested, and the “Effect (down-regulation scale)” value ([1]; Conc. 0.1%) was “−− (41-60)” and the “reduction of mRNA for the heavy chain DYNC1H1 of cytoplasmic dynein” value ([1]; keratinocytes, p=0.02) was 45.03%.
For CC/C=C\CCCCCO [cis-6-Nonenol], the “Effect (down-regulation scale)” value ([1]; Conc. 0.0001%) was “− (21-40)”.
For CCC=CCC=CCCO [3,6-Nonadienol], the “Effect (down-regulation scale)” value ([2]; Conc. 0.01%) was “− (21-40)”.
For CCOc1ccc(C(=O)CC(Sc2ccc(Cl)cc2)C(=O)O)cc1 (stereo not shown) [Compound 5], the “Effect (up-regulation scale)” value ([2]; Conc. 0.00001%) was “++ (41-60)”.
With CCOCCCNC(=O)c1coc(CN(CCCOCC)C(=O)Nc2ccccc2C)n1 [Compound 4] the “Effect (up-regulation scale)” value ([2]; Conc. 0.00005%) was “++ (41-60)”.
CCc1ccccc1NC(=O)N(Cc1ccc(OS(C)(=O)=O)cc1)CC(C)C [Compound 8] was tested, and the “Effect (down-regulation scale)” value ([2]; Conc. 0.0005%) was “− (21-40)”.
In the case of CC1=C(CC/C(C)=C/COC[C@@H](O)[C@@H](O)[C@H](O)[C@H](O)CO)C(C)(C)C(C)CC1 (stereo partly drawn) [Chalmicrin, 1-O—[(E)-3-Methyl-5-(2,5,6,6-tetramethyl-1-cyclohexen-1-yl)-2-pentenyl]-D-mannitol], the “Effect (up-regulation scale)” value ([1]; Conc. 0.0001%) is reported as “++++ (>81)”.
With CCCCC(CC)C(=O)Nc1ccc(N2CCN(C(=O)C3CCCCC3)CC2)cc1 (stereo not shown) [Compound 7] the “Effect (down-regulation scale)” value ([1]; Conc. 0.00005%) was “− (21-40)”.
